# Data from PubChem BioAssay AID2060503 (Molecular Pharmacology Branch, DTP, NCI, 2025).
# Test system: 817829-284-R-J1-PDC complex spheroids, viability
# Assay: Anticancer human tumor 817829-284-R-J1-PDC patient-derived colon adenocarcinoma cell line growth inhibition [GQUAD]
# Details: second compound 3.16 µM; first compound 0.0999 µM; active compounds read low
# In short: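 Tumor cells were grown as complex spheroids with HUVEC endothelial cells and mesenchymal stem cells as stroma. G-quadruplex stabilizers were combined with targeted agents over half-log dilutions from near the clinical Cmax, or from 10 microM.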
# 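Also: spheroids exposed to agents for 7 days before readout; percent viability relative to DMSO vehicle control taken as 100%.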
row,Compound,"viability, T/C"
1,Cc1[nH]c2ccccc2c1CCNCc1ccc(/C=C/C(=O)NO)cc1 + Cc1[nH]c2ccc(F)cc2c1-c1nc2c3cccnc3c3ncccc3c2[nH]1,3.35%

# Same assay, conditions: second compound 3.16 µM; first compound 0.1 µM; active compounds read low
row,Compound,"viability, T/C"
1,C#Cc1c(F)ccc2cc(O)cc(-c3ncc4c(N5CC6CCC(C5)N6)nc(OCC56CCCN5CC(F)C6)nc4c3F)c12 (configuration not stated) + Cc1[nH]c2ccc(F)cc2c1-c1nc2c3cccnc3c3ncccc3c2[nH]1,4.3%
2,C=CCn1c(=O)c2cnc(Nc3ccc(N4CCN(C)CC4)cc3)nc2n1-c1cccc(C(C)(C)O)n1 + Cc1[nH]c2ccc(F)cc2c1-c1nc2c3cccnc3c3ncccc3c2[nH]1,30.2%
3,CC(C)(O)C1CCC(Nc2ccc3ncc(-c4cccc(C(F)(F)F)c4)n3n2)CC1 (configuration not stated) + Cc1[nH]c2ccc(F)cc2c1-c1nc2c3cccnc3c3ncccc3c2[nH]1,3.58%
4,Nc1ccn(C2OC(CO)C(O)C2(F)F)c(=O)n1 (configuration not stated) + Cc1[nH]c2ccc(F)cc2c1-c1nc2c3cccnc3c3ncccc3c2[nH]1,7.63%
5,O=C(NO)c1cnc(N2CCN(S(=O)(=O)c3ccc4ccccc4c3)CC2)nc1 + Cc1[nH]c2ccc(F)cc2c1-c1nc2c3cccnc3c3ncccc3c2[nH]1,13.6%
6,O=c1[nH]cc(F)c(=O)[nH]1 + Cc1[nH]c2ccc(F)cc2c1-c1nc2c3cccnc3c3ncccc3c2[nH]1,106%

# Same assay, conditions: second compound 3.16 µM; first compound 0.316 µM; active compounds read low
row,Compound,"viability, T/C"
1,C#Cc1c(F)ccc2cc(O)cc(-c3ncc4c(N5CC6CCC(C5)N6)nc(OCC56CCCN5CC(F)C6)nc4c3F)c12 (configuration not stated) + Cc1[nH]c2ccc(F)cc2c1-c1nc2c3cccnc3c3ncccc3c2[nH]1,3.9%
2,C=CCn1c(=O)c2cnc(Nc3ccc(N4CCN(C)CC4)cc3)nc2n1-c1cccc(C(C)(C)O)n1 + Cc1[nH]c2ccc(F)cc2c1-c1nc2c3cccnc3c3ncccc3c2[nH]1,8.17%
3,CC(C)(O)C1CCC(Nc2ccc3ncc(-c4cccc(C(F)(F)F)c4)n3n2)CC1 (configuration not stated) + Cc1[nH]c2ccc(F)cc2c1-c1nc2c3cccnc3c3ncccc3c2[nH]1,2.98%
4,Cc1[nH]c2ccccc2c1CCNCc1ccc(/C=C/C(=O)NO)cc1 + Cc1[nH]c2ccc(F)cc2c1-c1nc2c3cccnc3c3ncccc3c2[nH]1,0.16%
5,Nc1ccn(C2OC(CO)C(O)C2(F)F)c(=O)n1 (configuration not stated) + Cc1[nH]c2ccc(F)cc2c1-c1nc2c3cccnc3c3ncccc3c2[nH]1,3.35%
6,O=C(NO)c1cnc(N2CCN(S(=O)(=O)c3ccc4ccccc4c3)CC2)nc1 + Cc1[nH]c2ccc(F)cc2c1-c1nc2c3cccnc3c3ncccc3c2[nH]1,0.27%
7,O=c1[nH]cc(F)c(=O)[nH]1 + Cc1[nH]c2ccc(F)cc2c1-c1nc2c3cccnc3c3ncccc3c2[nH]1,87.6%

# Same assay, conditions: second compound 3.16 µM; first compound 1 µM; active compounds read low
row,Compound,"viability, T/C"
1,C#Cc1c(F)ccc2cc(O)cc(-c3ncc4c(N5CC6CCC(C5)N6)nc(OCC56CCCN5CC(F)C6)nc4c3F)c12 (configuration not stated) + Cc1[nH]c2ccc(F)cc2c1-c1nc2c3cccnc3c3ncccc3c2[nH]1,3.3%
2,C=CCn1c(=O)c2cnc(Nc3ccc(N4CCN(C)CC4)cc3)nc2n1-c1cccc(C(C)(C)O)n1 + Cc1[nH]c2ccc(F)cc2c1-c1nc2c3cccnc3c3ncccc3c2[nH]1,5.38%
3,CC(C)(O)C1CCC(Nc2ccc3ncc(-c4cccc(C(F)(F)F)c4)n3n2)CC1 (configuration not stated) + Cc1[nH]c2ccc(F)cc2c1-c1nc2c3cccnc3c3ncccc3c2[nH]1,1.34%
4,Nc1ccn(C2OC(CO)C(O)C2(F)F)c(=O)n1 (configuration not stated) + Cc1[nH]c2ccc(F)cc2c1-c1nc2c3cccnc3c3ncccc3c2[nH]1,3.87%
5,O=C(NO)c1cnc(N2CCN(S(=O)(=O)c3ccc4ccccc4c3)CC2)nc1 + Cc1[nH]c2ccc(F)cc2c1-c1nc2c3cccnc3c3ncccc3c2[nH]1,0.1%
6,O=c1[nH]cc(F)c(=O)[nH]1 + Cc1[nH]c2ccc(F)cc2c1-c1nc2c3cccnc3c3ncccc3c2[nH]1,31.3%

# Same assay, conditions: second compound 3.16 µM; first compound 3.16 µM; active compounds read low
row,Compound,"viability, T/C"
1,C#Cc1c(F)ccc2cc(O)cc(-c3ncc4c(N5CC6CCC(C5)N6)nc(OCC56CCCN5CC(F)C6)nc4c3F)c12 (configuration not stated) + Cc1[nH]c2ccc(F)cc2c1-c1nc2c3cccnc3c3ncccc3c2[nH]1,1.62%
2,C=CCn1c(=O)c2cnc(Nc3ccc(N4CCN(C)CC4)cc3)nc2n1-c1cccc(C(C)(C)O)n1 + Cc1[nH]c2ccc(F)cc2c1-c1nc2c3cccnc3c3ncccc3c2[nH]1,4.83%
3,CC(C)(O)C1CCC(Nc2ccc3ncc(-c4cccc(C(F)(F)F)c4)n3n2)CC1 (configuration not stated) + Cc1[nH]c2ccc(F)cc2c1-c1nc2c3cccnc3c3ncccc3c2[nH]1,0.58%
4,Nc1ccn(C2OC(CO)C(O)C2(F)F)c(=O)n1 (configuration not stated) + Cc1[nH]c2ccc(F)cc2c1-c1nc2c3cccnc3c3ncccc3c2[nH]1,3.33%
5,O=C(NO)c1cnc(N2CCN(S(=O)(=O)c3ccc4ccccc4c3)CC2)nc1 + Cc1[nH]c2ccc(F)cc2c1-c1nc2c3cccnc3c3ncccc3c2[nH]1,0.08%
6,O=c1[nH]cc(F)c(=O)[nH]1 + Cc1[nH]c2ccc(F)cc2c1-c1nc2c3cccnc3c3ncccc3c2[nH]1,27.5%

# Same assay, conditions: second compound 3.16 µM; first compound 10 µM; active compounds read low
row,Compound,"viability, T/C"
1,C#Cc1c(F)ccc2cc(O)cc(-c3ncc4c(N5CC6CCC(C5)N6)nc(OCC56CCCN5CC(F)C6)nc4c3F)c12 (configuration not stated) + Cc1[nH]c2ccc(F)cc2c1-c1nc2c3cccnc3c3ncccc3c2[nH]1,0.11%
2,C=CCn1c(=O)c2cnc(Nc3ccc(N4CCN(C)CC4)cc3)nc2n1-c1cccc(C(C)(C)O)n1 + Cc1[nH]c2ccc(F)cc2c1-c1nc2c3cccnc3c3ncccc3c2[nH]1,4.49%
3,CC(C)(O)C1CCC(Nc2ccc3ncc(-c4cccc(C(F)(F)F)c4)n3n2)CC1 (configuration not stated) + Cc1[nH]c2ccc(F)cc2c1-c1nc2c3cccnc3c3ncccc3c2[nH]1,1.69%
4,Nc1ccn(C2OC(CO)C(O)C2(F)F)c(=O)n1 (configuration not stated) + Cc1[nH]c2ccc(F)cc2c1-c1nc2c3cccnc3c3ncccc3c2[nH]1,2.74%
5,O=C(NO)c1cnc(N2CCN(S(=O)(=O)c3ccc4ccccc4c3)CC2)nc1 + Cc1[nH]c2ccc(F)cc2c1-c1nc2c3cccnc3c3ncccc3c2[nH]1,0.13%
6,O=c1[nH]cc(F)c(=O)[nH]1 + Cc1[nH]c2ccc(F)cc2c1-c1nc2c3cccnc3c3ncccc3c2[nH]1,20.4%

# Same assay, conditions: second compound 10 µM; first compound 0.000999 µM; active compounds read low
row,Compound,"viability, T/C"
1,Cc1[nH]c2ccccc2c1CCNCc1ccc(/C=C/C(=O)NO)cc1 + Cc1[nH]c2ccc(F)cc2c1-c1nc2c3cccnc3c3ncccc3c2[nH]1,41.8%

# Same assay, conditions: second compound 10 µM; first compound 0.00316 µM; active compounds read low
row,Compound,"viability, T/C"
1,Cc1[nH]c2ccccc2c1CCNCc1ccc(/C=C/C(=O)NO)cc1 + Cc1[nH]c2ccc(F)cc2c1-c1nc2c3cccnc3c3ncccc3c2[nH]1,56.7%

# Same assay, conditions: second compound 10 µM; first compound 0.00999 µM; active compounds read low
row,Compound,"viability, T/C"
1,Cc1[nH]c2ccccc2c1CCNCc1ccc(/C=C/C(=O)NO)cc1 + Cc1[nH]c2ccc(F)cc2c1-c1nc2c3cccnc3c3ncccc3c2[nH]1,40.3%

# Same assay, conditions: second compound 10 µM; first compound 0.0316 µM; active compounds read low
row,Compound,"viability, T/C"
1,C#Cc1c(F)ccc2cc(O)cc(-c3ncc4c(N5CC6CCC(C5)N6)nc(OCC56CCCN5CC(F)C6)nc4c3F)c12 (configuration not stated) + Cc1[nH]c2ccc(F)cc2c1-c1nc2c3cccnc3c3ncccc3c2[nH]1,3%
2,C=CCn1c(=O)c2cnc(Nc3ccc(N4CCN(C)CC4)cc3)nc2n1-c1cccc(C(C)(C)O)n1 + Cc1[nH]c2ccc(F)cc2c1-c1nc2c3cccnc3c3ncccc3c2[nH]1,28.6%
